Measurements as given in EP2424865B1 (Boehringer Ingelheim International GmbH, priority 2009, dated 2010).

Key:
[1] = target: human recombinant cytochrome P450 2C9 (Homo sapiens, UniProt P11712); test: Biological Test Example 7: CYP2C9 inhibition ([O-methyl-14C]-Naproxen O-demethylation)
[2] = target: human recombinant cytochrome P450 3A4 (Homo sapiens, UniProt P08684)
[3] = target: human recombinant cytochrome P450 2C19 (Homo sapiens, UniProt P33261); test: Biological Test Example 8: CYP2C19 inhibition ([N-methyl-14C]-Diazepam N-demethylation)
human recombinant cytochrome P450 2C19, sequence (P33261 whole entry): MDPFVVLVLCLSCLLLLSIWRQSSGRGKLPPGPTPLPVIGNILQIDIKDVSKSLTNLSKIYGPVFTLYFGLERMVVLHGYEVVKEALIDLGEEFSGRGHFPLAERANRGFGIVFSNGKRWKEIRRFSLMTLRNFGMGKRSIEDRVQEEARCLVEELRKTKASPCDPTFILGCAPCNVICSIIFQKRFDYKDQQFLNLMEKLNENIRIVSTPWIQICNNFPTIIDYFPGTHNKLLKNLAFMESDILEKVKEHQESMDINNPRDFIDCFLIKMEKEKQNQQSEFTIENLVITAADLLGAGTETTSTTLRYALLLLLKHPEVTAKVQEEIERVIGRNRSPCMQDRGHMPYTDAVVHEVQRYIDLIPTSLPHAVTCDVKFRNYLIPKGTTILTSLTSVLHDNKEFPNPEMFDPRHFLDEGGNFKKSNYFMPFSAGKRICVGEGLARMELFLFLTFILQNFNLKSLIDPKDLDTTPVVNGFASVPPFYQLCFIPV

Plasma protein = test: Biological Test Example 5: fraction unbound in human plasma (equilibrium dialysis); assay type: in vitro ADME; details: Examples

human recombinant cytochrome P450 3A4, sequence (P08684 whole entry): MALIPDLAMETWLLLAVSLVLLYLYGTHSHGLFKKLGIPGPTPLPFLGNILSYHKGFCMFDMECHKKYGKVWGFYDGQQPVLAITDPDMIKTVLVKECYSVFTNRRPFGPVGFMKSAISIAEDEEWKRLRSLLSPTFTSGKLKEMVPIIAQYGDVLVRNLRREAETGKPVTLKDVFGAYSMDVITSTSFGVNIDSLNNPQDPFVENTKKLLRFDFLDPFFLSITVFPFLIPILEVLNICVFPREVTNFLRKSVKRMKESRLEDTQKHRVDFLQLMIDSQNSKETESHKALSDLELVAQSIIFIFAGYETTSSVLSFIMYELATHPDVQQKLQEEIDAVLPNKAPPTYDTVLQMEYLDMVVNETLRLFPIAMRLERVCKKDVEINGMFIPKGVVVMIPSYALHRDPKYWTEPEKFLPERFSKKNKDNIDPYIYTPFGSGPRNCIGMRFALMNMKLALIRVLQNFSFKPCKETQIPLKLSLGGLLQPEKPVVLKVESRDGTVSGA
human recombinant cytochrome P450 2C9, sequence (P11712 whole entry): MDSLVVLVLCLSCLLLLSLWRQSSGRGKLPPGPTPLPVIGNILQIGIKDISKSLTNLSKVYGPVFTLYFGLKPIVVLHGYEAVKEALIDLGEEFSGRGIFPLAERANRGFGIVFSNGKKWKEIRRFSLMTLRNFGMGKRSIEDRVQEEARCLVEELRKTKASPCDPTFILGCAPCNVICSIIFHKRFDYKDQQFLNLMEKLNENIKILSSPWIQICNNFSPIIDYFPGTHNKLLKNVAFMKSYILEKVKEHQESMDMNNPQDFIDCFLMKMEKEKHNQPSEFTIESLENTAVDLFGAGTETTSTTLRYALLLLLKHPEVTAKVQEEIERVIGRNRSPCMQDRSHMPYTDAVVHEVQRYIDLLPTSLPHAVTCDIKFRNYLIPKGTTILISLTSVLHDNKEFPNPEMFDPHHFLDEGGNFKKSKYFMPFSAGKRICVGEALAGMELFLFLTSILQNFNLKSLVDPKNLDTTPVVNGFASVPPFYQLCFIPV

IC50 [1]	IC50 [2]	IC50 [3]	SMILES	Biological Test Example 5 (%) (Plasma protein)
35 µM	41 µM	8 µM	CCn1c(C)cc(-c2ccc([C@H](C)N3CC[C@](CC(C)(C)O)(c4ccccc4)OC3=O)cc2)cc1=O [Example 72, (S)-3-((S)-1-(4-(1-ethyl-6-methyl-2-oxo-1,2-dihydropyridin-4-yl)phenyl)ethyl)-6-(2-hydroxy-2-methylpropyl)-6-phenyl-1,3-oxazinan-2-one]	
			CC[C@@H](c1ccc(-c2ccc(=O)n(CC)c2)cc1)N1CC[C@](CC(C)(C)O)(c2ccccc2)OC1=O [Example 52, (S)-3-((S)-1-(4-(1-ethyl-6-oxo-1,6-dihydropyridin-3-yl)phenyl)propyl)-6-(2-hydroxy-2-methylpropyl)-6-phenyl-1,3-oxazinan-2-one]	9.0%
> 50 µM	> 50 µM	25 µM	CCn1ccc(-c2ccc([C@H](C)N3CC[C@](CC(C)(C)O)(c4ccccc4)OC3=O)cc2)cc1=O [Example 65, (S)-3-((S)-1-(4-(1-ethyl-2-oxo-1,2-dihydropyridin-4-yl)phenyl)ethyl)-6-(2-hydroxy-2-methylpropyl)-6-phenyl-1,3-oxazinan-2-one]	
33 µM		17 µM	Cc1cc(-c2ccc([C@H](C)N3CC[C@](CC(C)(C)O)(c4ccccc4)OC3=O)cc2)cc(=O)n1C [Example 64, (S)-3-((S)-1-(4-(1,6-dimethyl-2-oxo-1,2-dihydropyridin-4-yl)phenyl)ethyl)-6-(2-hydroxy-2-methylpropyl)-6-phenyl-1,3-oxazinan-2-one]	
47 µM	43 µM	28 µM	CC(C)n1ccc(-c2ccc([C@H](C)N3CC[C@](CC(C)(C)O)(c4ccccc4)OC3=O)cc2)cc1=O [Example 68, (S)-6-(2-hydroxy-2-methylpropyl)-3-((S)-1-(4-(1-isopropyl-2-oxo-1,2-dihydropyridin-4-yl)phenyl)ethyl)-6-phenyl-1,3-oxazinan-2-one]	
18 µM	25 µM	24 µM	C[C@@H](c1ccc(-c2cc[nH]c(=O)c2)cc1)N1CC[C@](CC(C)(C)C#N)(c2ccccc2)OC1=O [Example 14, 2,2-dimethyl-3-((R)-2-oxo-3-((S)-1-(4-(2-oxo-1,2-dihydropyridin-4-yl)phenyl)ethyl)-6-phenyl-1,3-oxazinan-6-yl)propanenitrile]	
28 µM			C[C@@H](c1ccc(-c2ccn(C3CC3)c(=O)c2)cc1)N1CC[C@](CC(C)(C)O)(c2ccccc2F)OC1=O [Example 88, (S)-3-((S)-1-(4-(1-cyclopropyl-2-oxo-1,2-dihydropyridin-4-yl)phenyl)ethyl)-6-(2-fluorophenyl)-6-(2-hydroxy-2-methylpropyl)-1,3-oxazinan-2-one]	
	29 µM		C[C@@H](c1ccc(-c2ccn(C(F)F)c(=O)c2)cc1)N1CC[C@](CC(C)(C)O)(c2ccccc2)OC1=O [Example 5, (S)-3-((S)-1-(4-(1-(difluoromethyl)-2-oxo-1,2-dihydropyridin-4-yl)phenyl)ethyl)-6-(2-hydroxy-2-methylpropyl)-6-phenyl-1,3-oxazinan-2-one]	
17 µM	21 µM		C[C@@H](c1ccc(-c2ccc(=O)n(C(F)F)c2)cc1)N1CC[C@](CC(C)(C)O)(c2ccccc2)OC1=O [Example 4, (S)-3-((S)-1-(4-(1-(difluoromethyl)-6-oxo-1,6-dihydropyridin-3-yl)phenyl)ethyl)-6-(2-hydroxy-2-methylpropyl)-6-phenyl-1,3-oxazinan-2-one]	
			CCn1cc(-c2ccc([C@H](C)N3CC[C@](CC(C)(C)O)(c4ccccc4)OC3=O)cc2)ccc1=O [Example 53, (S)-3-((S)-1-(4-(1-ethyl-6-oxo-1,6-dihydropyridin-3-yl)phenyl)ethyl)-6-(2-hydroxy-2-methylpropyl)-6-phenyl-1,3-oxazinan-2-one]	12.8%
41 µM	28 µM	34 µM	C[C@@H](c1ccc(-c2ccc(=O)n(CC(F)(F)F)c2)cc1)N1CC[C@](CC(C)(C)O)(c2ccccc2)OC1=O [Example 67, (S)-6-(2-hydroxy-2-methylpropyl)-3-((S)-1-(4-(6-oxo-1-(2,2,2-trifluoroethyl)-1,6-dihydropyridin-3-yl)phenyl)ethyl)-6-phenyl-1,3-oxazinan-2-one]	
	48 µM	38 µM	CCn1cc(-c2ccc([C@H](C)N3CC[C@](CC(C)(C)O)(c4ccc(F)cc4)OC3=O)cc2)ccc1=O [Example 62, (S)-3-((S)-1-(4-(1-ethyl-6-oxo-1,6-dihydropyridin-3-yl)phenyl)ethyl)-6-(4-fluorophenyl)-6-(2-hydroxy-2-methylpropyl)-1,3-oxazinan-2-one]	
17 µM	6 µM	24 µM	C[C@@H](c1ccc(-c2ccc(=O)[nH]c2)cc1)N1CC[C@](CC(C)(C)C#N)(c2ccccc2)OC1=O [Example 71, 2,2-dimethyl-3-((R)-2-oxo-3-((S)-1-(4-(6-oxo-1,6-dihydropyridin-3-yl)phenyl)ethyl)-6-phenyl-1,3-oxazinan-6-yl)propanenitrile]	

SMILES	IC50 [1]	IC50 [2]	IC50 [3]	Biological Test Example 5 (%) (Plasma protein)
Cc1cc(-c2ccc([C@H](C)N3CC[C@](CC(C)(C)O)(c4ccccc4)OC3=O)cc2)cn(C)c1=O [Example 61, (S)-3-((S)-1-(4-(1,5-dimethyl-6-oxo-1,6-dihydropyridin-3-yl)phenyl)ethyl)-6-(2-hydroxy-2-methylpropyl)-6-phenyl-1,3-oxazinan-2-one]	40 µM		18 µM	
CC(C)n1cc(-c2ccc([C@H](C)N3CC[C@](CC(C)(C)O)(c4ccccc4)OC3=O)cc2)ccc1=O [Example 59, (S)-6-(2-hydroxy-2-methylpropyl)-3-((S)-1-(4-(1-isopropyl-6-oxo-1,6-dihydropyridin-3-yl)phenyl)ethyl)-6-phenyl-1,3-oxazinan-2-one]			37 µM	
C[C@@H](c1ccc(-c2ccn(CCF)c(=O)c2)cc1)N1CC[C@](CC(C)(C)O)(c2ccccc2)OC1=O [Example 25, (S)-3-((S)-1-(4-(1-(2-fluoroethyl)-2-oxo-1,2-dihydropyridin-4-yl)phenyl)ethyl)-6-(2-hydroxy-2-methylpropyl)-6-phenyl-1,3-oxazinan-2-one]	30 µM	33 µM		
C[C@@H](c1ccc(-c2ccc(=O)n(C)c2)cc1)N1CC[C@](CC(C)(C)C#N)(c2ccc(F)cc2)OC1=O [Example 69, 3-((R)-6-(4-fluorophenyl)-3-((S)-1-(4-(1-methyl-6-oxo-1,6-dihydropyridin-3-yl)phenyl)ethyl)-2-oxo-1,3-oxazinan-6-yl)-2,2-dimethylpropanenitrile]	38 µM	23 µM		
CC[C@@H](c1ccc(-c2ccn(C)c(=O)c2)cc1)N1CC[C@](CC)(c2ccccc2)OC1=O [Example 58, (R)-6-ethyl-3-((S)-1-(4-(1-methyl-2-oxo-1,2-dihydropyridin-4-yl)phenyl)propyl)-6-phenyl-1,3-oxazinan-2-one]	3 µM	8 µM	2 µM	
CCn1cc(-c2ccc([C@H](C)N3CC[C@](CC(C)(C)O)(c4ccccc4)OC3=O)cc2)cc(C)c1=O [Example 70, (S)-3-((S)-1-(4-(1-ethyl-5-methyl-6-oxo-1,6-dihydropyridin-3-yl)phenyl)ethyl)-6-(2-hydroxy-2-methylpropyl)-6-phenyl-1,3-oxazinan-2-one]		28 µM	23 µM	
